Key:
[1] = tested on: radiation induced fibrosarcoma (RIF) tumor cell; test: In vitro photosensitizing activity in RIF tumor cells (MTT); type: cell-based; conditions: 2.0 μM, light dose of 4 J/cm2
Experimental: Both cell lines are known to have some expression for Galectin-1 (Sacchettini, J. C., Baum, L. G. and Brewer, C. F., Multivalent Protein-carbohydrate Interactions. A New Paradiagm for Super Molecular Assembly and Signal Transduction, Biochemistry, 40:3009-3015, 2001). The Molt-4 cells were grown in RPMI 1640 5% FCS (Fetal calf serum) in 100% humidity with 5% CO2. Cells were transferred to phenol red free (PRF) RPMI 1640 media with 1% FCS and plated at 2.5×10^4 cells/well. After 3 hours incubation in the dark, the cells were washed once with PBS and re-suspended in prf RPMI 1640 with 1% FCS. These cells were then illuminated with a 1000W Quartz Halogen Lamp with IR and bandpass dichroic filters to allow light between 400 nm-700 nm, at a dose rate of 16 mW/cm^2 at 695 nm. The RIF tumor cells were grown in alpha-DMEM with 10% fetal calf serum, penicillin and streptomycin. Cells were maintained in 5% CO2, 95% air and 100% humidity. For determining the PDT efficacy, these cells were plated in 96-well plates and a density of 1×10^4 cells well in complete media. After overnight incubation to allow the cells to attach the photosensitizers 14 were individually added at variable concentrations. After a 3 hr incubation in the dark at 37° C., the cells were washed once with PBS, then irradiated with the same light source as above (Molt-4 procedure), and the optimal cell kill was obtained at a concentration of 1.0 μM. After PDT the cells were washed once and placed in complete media and incubated for 48 hrs. […] The 96-well plate was read on a microtiter plate reader (Miles Inc. Titertek Multiscan Plus MK II) at an absorbance of 560 nm. […]

Molt-4 cells = test: Cellular localization by fluorescence microscopy in Molt-4 cells; type: cell-based, human
Experimental: For investigating the difference in sites of localization between the photosensitizers with and without carbohydrate moieties, the fluorescence light microscopy experiments were performed in Molt-4 and RIF tumor cell lines. In a typical experiment, cells were imaged at 100× on an inverted fluorescence microscope (Carl Zeiss Inc. Axiovert 35.W.Germany) with a charged-coupled device camera (Dage-MTI, model 104722-02). Images were captured and processed by computer using Image-1 image processing software (Universal Imaging Corp., version 4.0, WestChester, Pa.). The photosensitizer fluorescence was assessed by using 530-585 nm excitation and 615 nm long-pass filter to measure emission while 338-378 nm excitation for DPH, and a 450 nm emission filter for emission (400 nm dichroic). […] In addition, […]1-(4-trimethylammonium)-6-phenyl-1,3,5-hexatriene (TMA-DPH), a hydrophobic fluorescent probe which interacts with living cells by instantaneous incorporation into plasma membrane and becomes fluorescent (Illinger, D., and Kuhry, J. G., The Kinetic Aspects of Intracellular Fluorescence Labeling with TMA-DPH Support the Maturation Model for Endocytosis in L929 Cells, The Journal of Cell Biology, 125:783-794, 1994), was added for the last 5 min of the incubation, cells were washed once with PBS and transferred to a microscope slide for imaging. […]

RIF tumors = test: In vivo photosensitizing efficacy (tumor re-growth assay) in mice bearing RIF tumors; design: species or system C3H/HEJ mice; conditions: 5.0 μM/kg; for mice tumor free on day 90: light 24 h post-injection, 6 mice/group; for mice tumor free on day 90 / in vivo PDT efficacy (in words): no free lactose
Experimental: Both conjugated and non-conjugated photosensitizers (1-4) were evaluated for their in vivo tumor response in C3H mice implanted with RIF tumors. In brief, C3H/HEJ mice were injected intradermally with 2×10^5 RIF cells in 30 μl HBSS w/o Ca^+2 and magnesium, into the flank and allowed to grow until they were 4-5 mm in diameter. The day before tumors were treatment size, the mice were injected with 0-5 μlmoles/kg of compounds 1-4. At 24 hours post-injection the mice were anesthetized with Ketamine and Xylazine, and restrained on plastic holders, treated with laser light from an argon pumped dye laser at 700 nm for a total fluence of 135 J/cm^2 at a fluence rate of 75 mW/cm^2. The mice (6 mice/group) were checked daily, the tumors were measured using two orthogonal measurements L and W (perpendicular to L) and the volumes were calculated using the formula V=LxW ^2/2 and recorded. Mice were considered cured if there was no palpable tumor at 90 days post PDT treatment.

Compound | cell kill [1] | fluorescence in presence of free lactose (Molt-4 cells; lactose 100 μM) | in vivo PDT efficacy, lactose injected immediately following the drug (RIF tumors; free lactose 100-fold excess) | in vivo PDT efficacy, lactose injected 1 hour prior to light treatment (RIF tumors; lactose 23 hr post-injection of the conjugate) | mice tumor free on day 90 (RIF tumors) | mice tumor free on day 90 (RIF tumors; listed as 4) | in vivo PDT efficacy (in words) (RIF tumors) | cellular localization (Molt-4 cells; incubated for 3 hrs) | in vivo PDT efficacy with and without lactose administration (RIF tumors)
C=C(C=CCO[C@@H]1O[C@H](CO)[C@@H](O[C@@H]2O[C@H](CO)[C@H](O)[C@H](O)[C@H]2O)[C@H](O)[C@H]1O)CN1C(=O)c2c3nc(cc4[nH]c(cc5nc(cc6[nH]c2c(c6C)C1=O)C(CC)=C5C)c(CC)c4C)C(C)C3CCC(=O)OC (mixture of isomers) [4a, Lactose-Chlorin conjugate joined with diene linkage] | 100% | No fluorescence was observed | significant decrease in PDT efficacy | quite effective | 3/6 | Three out of six | quite effective | – | –
Mesopurpurin-18-N-methyl-(2′-butadiene)imide [1a] | approximately 40% | – | – | – | – | – | inactive in vivo | intracellular localization | ineffective

Reference: patent US6849607B2, “Galectin recognized photosensitizers for photodynamic therapy” (Health Research, Inc., priority 2001, dated 2005)
